These are literature values, as cited in patent publication US20120053222A1, “Novel Metabolic Disease Therapy” (priority 2009, published 2012).

The test system of the data set is ob/ob mice. To be noted: injection.

For exendin 4, the liver steatosis result is on record as “diminishes liver steatosis”.
